# Assays:
# [1] = tested on: patients with PoPH; test: PORTICO safety: Child-Pugh classification and MELD score; type: in vivo
# Description: For the evaluation of treatment-emergent safety endpoints in the DB phase, the observation period for each individual subject started at the time of the first administration of macitentan or placebo and ended with the start of OL treatment or 30 days after DB treatment discontinuation (whichever occurred first). The safety variables listed below apply to the DB treatment-emergent period and the macitentan treatment-emergent period. The DB treatment-emergent period was defined as the period from the DB treatment start date up to the EOT-DB+30 days or to the EOT-DB for patients entering OL. The macitentan treatment-emergent period was defined as the period from the first intake of macitentan up to end of macitentan treatment (EOMT)+30 days. EOMT was defined as EOT-DB (for patient who received macitentan only in the DB period) or EOT-OL when applicable. […]
# [2] = tested on: patients with PoPH; test: PORTICO safety: liver test and hemoglobin laboratory abnormalities; type: in vivo
# Description: For the evaluation of treatment-emergent safety endpoints in the DB phase, the observation period for each individual subject started at the time of the first administration of macitentan or placebo and ended with the start of OL treatment or 30 days after DB treatment discontinuation (whichever occurred first). The safety variables listed below apply to the DB treatment-emergent period and the macitentan treatment-emergent period. The DB treatment-emergent period was defined as the period from the DB treatment start date up to the EOT-DB+30 days or to the EOT-DB for patients entering OL. The macitentan treatment-emergent period was defined as the period from the first intake of macitentan up to end of macitentan treatment (EOMT)+30 days. EOMT was defined as EOT-DB (for patient who received macitentan only in the DB period) or EOT-OL when applicable. For patients entering OLE, the EOMT is EOT-OL. • Treatment-emergent AEs • Treatment-emergent deaths • Treatment-emergent serious adverse events (SAEs) • AEs leading to premature discontinuation of study treatment • Occurrence of post-baseline LFT (ALT and/or AST) abnormalities, classified as: • ≥3×ULN; • ≥5×ULN; • ≥8×ULN; • ≥3×ULN and <5×ULN; • […] and <8×ULN. • Occurrence of post-baseline ALT and/or AST abnormality 3×ULN and concomitant (i.e., at the same time) total bilirubin ≥2×ULN • Occurrence of post-baseline ALT and/or AST abnormality ≥3×ULN and concomitant (i.e., at the same time) total bilirubin ≥2×ULN and increased as compared to baseline • Occurrence of hemoglobin abnormalities, classified as: • ≤80 g/L, • >80 and ≤100 g/L, • decrease from baseline ≥20 g/L and <50 g/L, • decrease from baseline ≥50 g/L, • <100 g/L and concurrent (i.e., at the same time) decrease from baseline ≥20 g/L. • Other treatment-emergent marked laboratory abnormalities • Change from baseline/macitentan baseline to EOT-DB/EOMT in vital signs • Change from baseline/macitentan baseline to EOT-DB/EOMT in laboratory variables • Change from baseline/macitentan baseline to EOT-DB/EOMT in Child-Pugh classification • Change from baseline/macitentan baseline to EOT-DB/EOMT in MELD score
# Treatment-emergent liver test and hemoglobin abnormalities are those that occurred during the DB treatment-emergent (SS) and macitentan treatment-emergent (MTS) periods that were not present at baseline.
# For post-baseline liver test abnormalities, the following events are considered: • ALT and/or AST ≥3×ULN, • ALT and/or AST ≥5×ULN, • ALT and/or AST ≥8×ULN, • ALT and/or AST ≥3×ULN and <5×ULN, • ALT and/or AST ≥5×ULN and <8×ULN, • ALT and/or AST ≥3×ULN and concomitant (i.e., at the same time) total bilirubin ≥2×ULN. • ALT and/or AST 3×ULN and concomitant (i.e., at the same time) total bilirubin ≥2×ULN and increased as compared to baseline
# The highest ALT or AST value at any post-baseline time point of assessment for DB treatment-emergent (SS) and macitentan treatment-emergent (MTS) periods was considered in the evaluation of incidences.
# For the occurrence of post-baseline hemoglobin abnormalities, the following events were considered in the evaluation of incidences: • Hemoglobin ≤80 g/L, • Hemoglobin >80 and […], • Hemoglobin decrease from baseline ≥20 g/L and <50 g/L, • Hemoglobin decrease from baseline ≥50 g/L, • Hemoglobin <100 g/L and concurrent (i.e., at the same time) decrease from baseline ≥20 g/L.
# The lowest hemoglobin value at any post-baseline time point of assessment for DB treatment-emergent (SS) and macitentan treatment-emergent (MTS) periods was considered in the evaluation of incidences.
# [3] = DB phase, Safety set, 10 mg, N = 43, most extreme post-baseline value
# [4] = single macitentan-treated patient, DB phase
# [5] = single patient, DB+OL phase, malignant ascites and hepatic encephalopathy
structure (smiles),measurement,setting,value
"CCCNS(=O)(=O)Nc1ncnc(OCCOc2ncc(Br)cn2)c1-c1ccc(Br)cc1 [macitentan, N-[5-(4-Bromophenyl)-6-[2-[(5-bromo-2-pyrimidinyl)oxy]ethoxy]-4-pyrimidinyl]-N′-propylsulfamide]",Patients with worsening in Child-Pugh category,"[1]; DB phase, macitentan group n=23",none
same,Median MELD score at Week 12,"[1]; DB phase, range 6-15",10
same,Patients worsening from Child-Pugh category A to B during macitentan treatment,"[1]; combined DB+OL phase, patient had placebo in DB phase",1 patient
same,Patients with hemoglobin decreased to ≤80 g/L,[2]; DB phase,none
same,ALT or AST >= 5*ULN,[2]; [3],0/43
same,ALT or AST >= 5*ULN and <8*ULN,[2]; [3],0/43
same,ALT or AST >= 8*ULN,[2]; [3],0/43
same,Hemoglobin <= 80 g/L,[2]; [3],0/43
same,Patients with hemoglobin decreased to ≤100 g/L,"[2]; DB phase, macitentan group",3 patients
same,Patients with hemoglobin decreases of ≥20 g/L,"[2]; DB phase, macitentan group (12 patients)",27.9%
same,Patients with aminotransferase increase to >3×ULN,"[2]; DB phase, macitentan-treated",1 patient
same,ALT or AST >= 5*ULN and <8*ULN,"[2]; macitentan DB + OL phase, Macitentan treated set, N = 84",0/84
same,Patients with aminotransferase increase to >3×ULN,[2]; macitentan DB+OL phase,2 patients
same,Patients with hemoglobin decrease of ≥50 g/L,[2]; macitentan DB+OL phase,6 patients
same,Patients with hemoglobin decreased to ≤80 g/L,[2]; macitentan DB+OL phase,4 patients
same,Patients with hemoglobin decreased to ≤100 g/L,[2]; macitentan DB+OL phase,13 patients
same,Patients with hemoglobin decreases of ≥20 g/L,[2]; macitentan DB+OL phase (31 patients),37.3%
same,ALT in the patient with aminotransferase increase,[2]; [4],3.1 ×ULN
same,AST in the patient with aminotransferase increase,[2]; [4],3.2 ×ULN
same,Bilirubin in the patient with aminotransferase increase,[2]; [4],2.7 ×ULN
same,ALT in the additional patient with aminotransferase increase,[2]; [5],3.6 ×ULN
same,AST in the additional patient with aminotransferase increase,[2]; [5],8.6 ×ULN
same,Bilirubin in the additional patient with aminotransferase increase,[2]; [5],11.1 ×ULN
same,Macitentan-treated patients with Hy's Law range liver test abnormalities,[2]; whole study,2 patients

# — patent US20220257595A1, “MACITENTAN FOR USE IN TREATING PORTOPULMONARY HYPERTENSION” (ACTELION PHARMACEUTICALS LTD, priority 2019, published 2022)
